Data set [1] has as its system IL-2 stimulated STAT5 phosphorylation in Tall-1 human T cell line. In words: Inhibition of IL-2 stimulated pSTAT5 in Tall-1 T cells. The data set is classed as cell-based. The protocol: Assay 2: Inhibition of IL-2 Stimulated pSTAT5 in Tall-1 T Cells
The potency of test compounds for inhibition of interleukin-2 (IL-2) stimulated STAT5 phosphorylation was measured in the Tall-1 human T cell line (DSMZ) using AlphaLisa.
Phosphorylated STAT5 was measured via the AlphaLISA SureFire Ultra pSTAT5 (Tyr694/699) kit (PerkinElmer).
Compounds were serially diluted in DMSO and dispensed acoustically to empty wells. Assay media (phenol red-free DMEM (Life Technologies) supplemented with 10% FBS (ATCC)) was dispensed (4 μL/well) and plates shaken at 900 rpm for 10 mins. Cells were seeded at 45,000 cells/well in assay media (4 μL/well), and incubated at 37° C., 5% CO2 for 1 hour, followed by the addition of IL-2 (R&D Systems; final concentration 300 ng/mL) in pre-warmed assay media (4 μL) for 30 minutes. […] The lysate was shaken at 900 rpm for 10 minutes at room temperature (RT). Phosphorylated STAT5 was measured via the pSTAT5 AlphaLisa kit (PerkinElmer). Freshly prepared acceptor bead mixture was dispensed onto lysate (5 μL) under green filtered <100 lux light. Plates were shaken at 900 rpm for 2 mins, briefly spun down, and incubated for 2 hrs at RT in the dark. Donor beads were dispensed (5 μL) under green filtered <100 lux light. Plates were shaken at 900 rpm for 2 minutes, briefly spun down, and incubated overnight at RT in the dark. Luminescence was measured with excitation at 689 nm and emission at 570 nm using an EnVision plate reader (PerkinElmer) under green filtered <100 lux light.
To determine the inhibitory potency of test compounds in response to IL-2, the average emission intensity of beads bound to pSTAT5 was measured in a human T cell line. IC50 values were determined from analysis of the inhibition curves of signal intensity versus compound concentration. Data are expressed as pIC50 (negative decadic logarithm IC50) values (mean±standard deviation).

Data set [2] deals with JAK1 (Homo sapiens (Human), UniProt P23458). In words: Biochemical JAK kinase assay (LanthaScreen), JAK1. The settings on record: converted from pIC50 using Cheng-Prusoff; ATP 25 μM. The protocol:
(§1) Assay 1: Biochemical JAK Kinase Assays
(§2) A panel of four LanthaScreen JAK biochemical assays (JAK1, 2, 3 and Tyk2) were carried in a common kinase reaction buffer (50 mM HEPES, pH 7.5, 0.01% Brij-35, 10 mM MgCl2, and 1 mM EGTA). Recombinant GST-tagged JAK enzymes and a GFP-tagged STAT1 peptide substrate were obtained from Life Technologies.
(§3) Serially diluted compounds were pre-incubated with each of the four JAK enzymes and the substrate in white 384-well microplates (Corning) at ambient temperature for 1 h. ATP was subsequently added to initiate the kinase reactions in 10 μL total volume, with 1% DMSO. […] Kinase reactions were allowed to proceed for 1 hour at ambient temperature before a 10 μL preparation of EDTA (10 mM final concentration) and Tb-anti-pSTAT1 (pTyr701) antibody (Life Technologies, 2 nM final concentration) in TR-FRET dilution buffer (Life Technologies) was added. The plates were allowed to incubate at ambient temperature for 1 h before being read on the EnVision reader (Perkin Elmer). Emission ratio signals (520 nm/495 nm) were recorded and utilized to calculate the percent inhibition values based on DMSO and background controls.
(§4) For dose-response analysis, percent inhibition data were plotted vs. compound concentrations, and IC50 values were determined from a 4-parameter robust fit model with the Prism software (GraphPad Software). Results were expressed as pIC50 (negative logarithm of IC50) and subsequently converted to pKi (negative logarithm of dissociation constant, Ki) using the Cheng-Prusoff equation.
(In general: In TR-FRET formats the signal depends on donor and acceptor labels being close together.)

In data set [3] the target is Tyk2 (Homo sapiens (Human), UniProt P29597). In words: Biochemical JAK kinase assay (LanthaScreen), Tyk2. The following applies: converted from pIC50 using Cheng-Prusoff; ATP 10 μM. The protocol: as §1, §2, §3, §4
Tyk2, sequence (P29597 whole entry): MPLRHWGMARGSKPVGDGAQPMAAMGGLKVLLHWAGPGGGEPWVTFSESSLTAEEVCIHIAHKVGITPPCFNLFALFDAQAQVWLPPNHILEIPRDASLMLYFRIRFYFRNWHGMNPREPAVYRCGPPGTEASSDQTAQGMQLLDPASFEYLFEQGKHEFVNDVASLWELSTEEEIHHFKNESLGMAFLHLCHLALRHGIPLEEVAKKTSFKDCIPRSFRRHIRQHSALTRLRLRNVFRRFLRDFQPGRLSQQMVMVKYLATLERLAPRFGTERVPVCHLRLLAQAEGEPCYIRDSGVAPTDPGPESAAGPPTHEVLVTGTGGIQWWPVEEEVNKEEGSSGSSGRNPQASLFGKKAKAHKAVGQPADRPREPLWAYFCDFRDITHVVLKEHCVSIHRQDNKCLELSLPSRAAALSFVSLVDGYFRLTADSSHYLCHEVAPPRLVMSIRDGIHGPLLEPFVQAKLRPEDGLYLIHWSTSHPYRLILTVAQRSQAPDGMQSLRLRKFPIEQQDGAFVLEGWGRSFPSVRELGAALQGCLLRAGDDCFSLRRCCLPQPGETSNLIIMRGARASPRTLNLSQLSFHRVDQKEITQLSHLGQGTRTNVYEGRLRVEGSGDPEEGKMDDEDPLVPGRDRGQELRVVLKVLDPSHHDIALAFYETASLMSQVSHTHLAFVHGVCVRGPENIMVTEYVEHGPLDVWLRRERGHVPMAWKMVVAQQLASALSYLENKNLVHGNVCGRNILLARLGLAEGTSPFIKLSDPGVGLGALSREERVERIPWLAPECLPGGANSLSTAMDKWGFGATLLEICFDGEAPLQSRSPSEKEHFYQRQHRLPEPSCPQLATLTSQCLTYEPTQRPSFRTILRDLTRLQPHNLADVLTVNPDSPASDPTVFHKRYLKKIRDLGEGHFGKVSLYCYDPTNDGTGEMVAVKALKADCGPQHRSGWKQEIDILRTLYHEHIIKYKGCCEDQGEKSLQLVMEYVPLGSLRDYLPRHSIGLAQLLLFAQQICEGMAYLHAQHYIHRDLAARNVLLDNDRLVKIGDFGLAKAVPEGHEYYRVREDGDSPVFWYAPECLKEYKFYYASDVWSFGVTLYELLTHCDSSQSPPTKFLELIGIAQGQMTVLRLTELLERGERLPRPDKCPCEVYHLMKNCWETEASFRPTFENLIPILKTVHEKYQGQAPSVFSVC
For data set [4], the target named is JAK3 (Homo sapiens (Human), UniProt P52333). In words: Biochemical JAK kinase assay (LanthaScreen), JAK3. The settings on record: converted from pIC50 using Cheng-Prusoff; ATP 1.6 μM. The protocol: as §1, §2, §3, §4
JAK3, sequence (P52333 whole entry): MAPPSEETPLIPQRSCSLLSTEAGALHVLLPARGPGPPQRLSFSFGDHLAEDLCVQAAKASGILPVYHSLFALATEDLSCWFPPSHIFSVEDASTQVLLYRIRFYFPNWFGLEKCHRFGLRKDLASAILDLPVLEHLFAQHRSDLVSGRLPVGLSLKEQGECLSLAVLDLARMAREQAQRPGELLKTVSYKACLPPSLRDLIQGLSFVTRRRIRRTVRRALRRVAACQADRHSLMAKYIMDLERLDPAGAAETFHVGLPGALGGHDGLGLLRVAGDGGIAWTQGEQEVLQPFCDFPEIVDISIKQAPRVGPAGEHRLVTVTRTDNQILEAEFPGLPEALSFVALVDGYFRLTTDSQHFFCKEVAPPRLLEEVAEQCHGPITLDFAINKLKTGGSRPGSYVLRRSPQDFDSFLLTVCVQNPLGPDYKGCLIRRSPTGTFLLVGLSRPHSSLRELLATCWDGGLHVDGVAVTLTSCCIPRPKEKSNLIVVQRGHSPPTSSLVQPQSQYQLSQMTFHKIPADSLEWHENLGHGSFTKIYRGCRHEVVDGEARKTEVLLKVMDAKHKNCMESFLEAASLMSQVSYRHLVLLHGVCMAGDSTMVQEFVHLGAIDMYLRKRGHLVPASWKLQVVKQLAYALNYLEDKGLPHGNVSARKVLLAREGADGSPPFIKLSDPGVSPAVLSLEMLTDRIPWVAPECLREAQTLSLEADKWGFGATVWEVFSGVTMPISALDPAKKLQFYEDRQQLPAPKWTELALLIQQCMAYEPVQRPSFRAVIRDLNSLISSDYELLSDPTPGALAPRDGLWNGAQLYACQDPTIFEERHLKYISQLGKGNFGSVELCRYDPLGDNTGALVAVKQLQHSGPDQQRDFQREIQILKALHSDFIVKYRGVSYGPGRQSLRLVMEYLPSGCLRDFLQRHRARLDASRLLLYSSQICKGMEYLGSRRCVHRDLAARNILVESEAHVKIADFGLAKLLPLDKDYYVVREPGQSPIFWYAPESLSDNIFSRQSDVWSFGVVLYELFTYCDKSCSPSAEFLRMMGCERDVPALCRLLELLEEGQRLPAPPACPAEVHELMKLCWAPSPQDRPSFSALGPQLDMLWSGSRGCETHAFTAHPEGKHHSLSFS
Data set [5] is described as follows: Lung and plasma exposure in mice after oral aspiration. The data set is classed as in vivo. The following applies: mouse, other: oral aspiration, 50 µg/animal; for Kp at 5 h: Balb/c, lung and plasma, lung ng/g to plasma ng/mL, mice, read-out: Lung to Plasma ratio at 5 hr; for concentration at 5 h: Balb/c mice, 1 mg/mL, 50 μL via oral aspiration. The protocol:
Adult Balb/c mice from Harlan were used in the assay. […] Animals were placed in lateral recumbency post dose and monitored for full recovery from anesthesia before being returned to their home cage. Four hours later, animals were once again briefly anesthetized and challenged with either vehicle or IL-13 (0.03 μg total dose delivered, 50 μL total volume) via oral aspiration before being monitored for recovery from anesthesia and returned to their home cage. One hour after vehicle or IL-13 administration, whole blood and lungs were collected for both pSTAT6 detection in lung homogenates using a Perkin Elmer AlphaLISA® SureFire® Ultra™ HVp-STAT6 (Tyr641) assay kit and for total drug concentration analysis in both lung and plasma. Blood samples were centrifuged (Eppendorf centrifuge, 5804R) for 4 minutes at approximately 12,000 rpm at 4° C. to collect plasma. […] Plasma and lung levels of test compound were determined by LC-MS analysis against analytical standards constructed into a standard curve in the test matrix. A lung to plasma ratio was determined as the ratio of the lung concentration in ng/g to the plasma concentration in ng/mL at 5 hours.

The target in data set [6] is JAK2 (Homo sapiens (Human), UniProt O60674). In words: Biochemical JAK kinase assay (LanthaScreen), JAK2. The following applies: converted from pIC50 using Cheng-Prusoff; ATP 3 μM. The protocol: as §1, §2, §3, §4
JAK2, sequence (O60674 whole entry): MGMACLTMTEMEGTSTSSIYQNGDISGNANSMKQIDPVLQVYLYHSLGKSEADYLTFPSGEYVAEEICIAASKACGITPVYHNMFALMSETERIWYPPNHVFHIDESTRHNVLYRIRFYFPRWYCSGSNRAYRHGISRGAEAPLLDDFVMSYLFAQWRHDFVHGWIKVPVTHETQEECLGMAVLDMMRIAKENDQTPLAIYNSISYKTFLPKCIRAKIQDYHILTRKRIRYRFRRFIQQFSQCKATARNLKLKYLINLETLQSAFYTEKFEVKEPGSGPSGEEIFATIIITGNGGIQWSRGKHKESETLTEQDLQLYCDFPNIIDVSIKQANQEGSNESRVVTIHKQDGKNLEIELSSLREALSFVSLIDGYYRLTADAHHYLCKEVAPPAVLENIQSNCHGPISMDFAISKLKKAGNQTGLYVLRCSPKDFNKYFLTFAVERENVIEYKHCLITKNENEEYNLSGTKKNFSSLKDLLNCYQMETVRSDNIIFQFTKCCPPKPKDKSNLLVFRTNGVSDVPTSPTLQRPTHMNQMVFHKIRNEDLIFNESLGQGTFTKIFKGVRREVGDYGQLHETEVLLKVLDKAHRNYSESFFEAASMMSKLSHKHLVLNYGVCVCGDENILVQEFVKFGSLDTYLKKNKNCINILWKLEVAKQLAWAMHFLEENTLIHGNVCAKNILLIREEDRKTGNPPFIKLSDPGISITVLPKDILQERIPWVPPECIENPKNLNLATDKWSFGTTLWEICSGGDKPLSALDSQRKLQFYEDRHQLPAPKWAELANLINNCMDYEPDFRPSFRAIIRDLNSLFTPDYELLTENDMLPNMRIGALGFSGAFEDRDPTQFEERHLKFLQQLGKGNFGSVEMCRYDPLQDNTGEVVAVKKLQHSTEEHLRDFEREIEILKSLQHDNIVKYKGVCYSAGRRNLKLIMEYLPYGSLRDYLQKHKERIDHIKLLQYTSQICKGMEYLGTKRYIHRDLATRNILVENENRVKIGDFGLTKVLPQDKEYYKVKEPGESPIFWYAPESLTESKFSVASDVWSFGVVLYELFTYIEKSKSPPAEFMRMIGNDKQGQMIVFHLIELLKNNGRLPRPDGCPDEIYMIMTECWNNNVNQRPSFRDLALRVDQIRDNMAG
The subject of data set [7] is TSLP-evoked TARC release in human peripheral blood mononuclear cells. In words: Inhibition of TSLP-evoked TARC release in human peripheral blood mononuclear cells. The data set is classed as cell-based. The following applies: Homo sapiens, PBMC, 48 h, read-out: pIC50 ± st. dev., inhibition of TSLP-evoked TARC release (converted). The text has this:
Assay 4: Inhibition of TSLP-Evoked TARC Release in Human Peripheral Blood Mononuclear Cells
Thymic stromal lymphopoietin (TSLP) and thymus and activation-regulated chemokine (TARC) are overexpressed in asthmatic airways, and correlate with disease severity. In the lungs, TSLP may be released by bronchial epithelial cells in response to allergens and viral infections. TSLP signals through an IL-7Rα/TSLPR heterodimer found in a broad range of tissues and cell types, including epithelial cells, endothelial cells, neutrophils, macrophages, and mast cells. The binding of TSLP to its receptor induces a conformational change that activates JAK1 and JAK2 to phosphorylate various transcription factors, including STAT3 and STAT5. In immune cells, this triggers a cascade of intracellular events that result in cell proliferation, anti-apoptosis, dendritic cell migration, and production of Th2 cytokines and chemokines. In peripheral blood mononuclear cells (PBMC), TSLP has a proinflammatory effect by activating myeloid dendritic cells to attract and stimulate T cells, a process mediated by the chemoattractant TARC.
The potencies of the test compounds were measured for inhibition of TARC release.
PBMC aliquots (previously isolated from whole blood and frozen in aliquots at −80° C.) from 3 to 5 donors were thawed at 37° C. and added dropwise to 40 mL pre-warmed, sterile-filtered, complete RPMI media in 50 mL Falcon tubes. Cells were pelleted and resuspended in complete media at 2.24×10^6 cells/mL. […] Cells were allowed to rest for 1 hour at 37° C. with 5% CO2.
Compounds were received as 10 mM stock solutions in DMSO. 3.7-fold serial dilutions were performed to generate 9 concentrations of test compound in DMSO at 300× the final assay test concentration. […] 95 μL of 0.2% DMSO in complete media was added to the untreated control wells. Cells were pre-treated with compound for 1 hour at 37° C. with 5% CO2 prior to stimulation.
Immediately prior to use, an aliquot was thawed and prepared at 20× the final assay concentration in complete media. 10 μL of 20×TSLP was added to each well of PBMC, for a final assay concentration of 10 ng/mL. 10 μL of complete media was added to the unstimulated control wells. Cells were stimulated in the presence of compound for 48 hours at 37° C. with 5% CO2.
Following stimulation, the cell culture supernatants were harvested and TARC levels were detected by enzyme-linked immunosorbent assay (ELISA), using Human CCL17/TARC Quantikine ELISA Kit (R&D Systems # DDN00) according to the manufacturer's instructions.
For dose response analysis, the log [test compound (M)] was plotted versus the percent response values for each donor, and IC50 values were determined using a nonlinear regression analysis with GraphPad Prism Software using the 4-parameter sigmoidal dose-response algorithm with variable slope. Data are expressed as mean pIC50 (negative decadic logarithm IC50) values calculated from pIC50 values of individual donors and rounded to one decimal place.

The mark [8] stands for this setting: IL-2 300 ng/mL, pSTAT5 AlphaLisa, Tall-1 cells, read-out: Tall-1 pIC50 (converted).
Setting [9] is: lung, read-out: Lung Concentration (ng/g) at 5 hr.
Where [10] appears, read: plasma, read-out: Plasma Concentration (ng/mL) at 5 hr.

SMILES strings stand for the structures. Read-outs that look alike come from different tables or passages of the source.

JAK1, sequence (P23458 whole entry): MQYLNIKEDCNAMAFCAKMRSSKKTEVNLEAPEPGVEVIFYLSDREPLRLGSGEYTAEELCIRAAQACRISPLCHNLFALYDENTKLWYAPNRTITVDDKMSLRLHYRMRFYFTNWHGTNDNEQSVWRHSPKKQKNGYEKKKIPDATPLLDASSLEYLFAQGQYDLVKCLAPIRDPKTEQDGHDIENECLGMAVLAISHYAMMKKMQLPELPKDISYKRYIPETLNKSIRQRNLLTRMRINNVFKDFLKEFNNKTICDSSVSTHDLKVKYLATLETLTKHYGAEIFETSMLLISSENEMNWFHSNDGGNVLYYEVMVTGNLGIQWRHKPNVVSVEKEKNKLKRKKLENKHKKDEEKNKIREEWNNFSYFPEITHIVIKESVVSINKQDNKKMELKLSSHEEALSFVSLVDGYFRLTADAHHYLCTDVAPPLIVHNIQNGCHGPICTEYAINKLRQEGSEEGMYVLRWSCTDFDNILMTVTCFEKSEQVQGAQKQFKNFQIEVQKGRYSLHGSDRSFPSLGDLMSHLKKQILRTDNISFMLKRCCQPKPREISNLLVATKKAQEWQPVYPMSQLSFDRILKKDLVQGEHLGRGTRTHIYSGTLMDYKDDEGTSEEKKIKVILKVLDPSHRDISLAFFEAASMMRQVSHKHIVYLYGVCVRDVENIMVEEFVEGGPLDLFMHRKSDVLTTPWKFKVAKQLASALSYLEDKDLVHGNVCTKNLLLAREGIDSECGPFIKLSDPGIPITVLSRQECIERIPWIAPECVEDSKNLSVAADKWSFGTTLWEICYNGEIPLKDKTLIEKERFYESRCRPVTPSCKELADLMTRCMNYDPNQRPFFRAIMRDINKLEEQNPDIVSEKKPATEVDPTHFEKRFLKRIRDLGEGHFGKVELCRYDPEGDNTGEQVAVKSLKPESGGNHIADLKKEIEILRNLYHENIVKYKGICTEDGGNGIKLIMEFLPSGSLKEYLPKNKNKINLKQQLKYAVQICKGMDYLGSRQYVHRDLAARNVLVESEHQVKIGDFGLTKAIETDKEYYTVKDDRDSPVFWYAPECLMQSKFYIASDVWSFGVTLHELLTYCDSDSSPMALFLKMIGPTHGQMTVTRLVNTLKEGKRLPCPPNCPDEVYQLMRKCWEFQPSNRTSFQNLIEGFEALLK

With `CCCN1Cc2[nH]c(-c3n[nH]c4cc(-c5ccc(O)cc5CC)ccc34)nc2C[C@H]1C(=O)N1CC(N(C)C)C1` [Example 12, (S)-(3-(dimethylamino)azetidin-1-yl)(2-(6-(2-ethyl-4-hydroxyphenyl)-1H-indazol-3-yl)-5-propyl-4,5,6,7-tetrahydro-3H-imidazo[4,5-c]pyridin-6-yl)methan One], the IC50 in data set [1] (setting [8]) was 2 nM. Also, the “JAK1 pKi” value in data set [2] stood at 10.5. For the same molecule, the “Tyk2 pKi” value in data set [3] is recorded as 9.0. Also, in data set [4], the “JAK3 pKi” value was determined as 10.3. Further, the Kp at 5 h in data set [5] was 281. Also, the values for the concentration at 5 h in data set [5] (setting [9]) and in data set [5] (setting [10]) were 6940 ± 4250 ng/g and 25 ± 9 ng/mL, respectively. For the same molecule, the “JAK2 pKi” value in data set [6] is reported as 10.6.
As to `CCCN1Cc2[nH]c(-c3n[nH]c4cc(-c5ccc(O)cc5CC)ccc34)nc2C[C@H]1C(=O)N1CC(C)(N(C)C)C1` [Example 13, (S)-(3-(dimethylamino)-3-methylazetidin-1-yl)(2-(6-(2-ethyl-4-hydroxyphenyl)-1H-indazol-3-yl)-5-propyl-4,5,6,7-tetrahydro-3H-imidazo[4,5-c]pyridin-6-yl)methan One], in data set [1] (setting [8]), the IC50 is 2.51 nM. Further, the “JAK1 pKi” value in data set [2] is 10.3. In data set [3], the “Tyk2 pKi” value was 9.0. In addition, the “JAK3 pKi” value in data set [4] came to 9.8. Also, the Kp at 5 h in data set [5] amounted to 330. The concentration at 5 h in data set [5] (setting [9]) amounted to 7460 ± 3080 ng/g; in data set [5] (setting [10]), 23 ± 2.5 ng/mL. Besides, the “JAK2 pKi” value in data set [6] turned out to be 10.5.
On to `CCc1cc(O)ccc1-c1ccc2c(-c3nc4c([nH]3)CN(C(C)C)[C@H](C(=O)N3CC(C)(N(C)C)C3)C4)n[nH]c2c1` [Example 11, (S)-(3-(dimethylamino)-3-methylazetidin-1-yl)(2-(6-(2-ethyl-4-hydroxyphenyl)-1H-indazol-3-yl)-5-isopropyl-4,5,6,7-tetrahydro-3H-imidazo[4,5-c]pyridin-6-yl)methan One], for which the IC50 in data set [1] (setting [8]) is 2 nM. Moreover, in data set [2], the “JAK1 pKi” value was determined as 10.0. For the same molecule, in data set [3], the “Tyk2 pKi” value is listed as 9.1. In data set [4], the “JAK3 pKi” value is given as 9.9. Moreover, the Kp at 5 h in data set [5] came to 271. The values for the concentration at 5 h in data set [5] (setting [9]) and in data set [5] (setting [10]) were 15000 ± 3350 ng/g and 55 ± 21 ng/mL, respectively. Also, in data set [6], the “JAK2 pKi” value was 10.8.
For the molecule `CCc1cc(O)ccc1-c1ccc2c(-c3nc4c([nH]3)CN(CC)[C@H](C(=O)N3CC(N(C)C)C3)C4)n[nH]c2c1` [Example 9, (S)-(3-(dimethylamino)azetidin-1-yl)(5-ethyl-2-(6-(2-ethyl-4-hydroxyphenyl)-1H-indazol-3-yl)-4,5,6,7-tetrahydro-3H-imidazo[4,5-c]pyridin-6-yl)methanone], the IC50 in data set [1] (setting [8]) is 2 nM. The “JAK1 pKi” value in data set [2] is 10.3. The “Tyk2 pKi” value in data set [3] amounted to 9.2. In data set [4], the “JAK3 pKi” value is on record as 10.3. Besides, the Kp at 5 h in data set [5] amounted to 339. In addition, the concentration at 5 h in data set [5] (setting [9]) is 7750 ± 1650 ng/g; in data set [5] (setting [10]), 23 ± 6 ng/mL. Also, the “JAK2 pKi” value in data set [6] came to 10.7.
With `CCc1cc(O)ccc1-c1ccc2c(-c3nc4c([nH]3)CN(CC)[C@H](C(=O)N3CC(C)(N(C)C)C3)C4)n[nH]c2c1` [Example 10, (S)-(3-(dimethylamino)-3-methylazetidin-1-yl)(5-ethyl-2-(6-(2-ethyl-4-hydroxyphenyl)-1H-indazol-3-yl)-4,5,6,7-tetrahydro-3H-imidazo[4,5-c]pyridin-6-yl)methan One], the IC50 in data set [1] (setting [8]) is 2.51 nM. Moreover, the “JAK1 pKi” value in data set [2] is on record as 10.4. The “Tyk2 pKi” value in data set [3] is on record as 9.1. Also, in data set [4], the “JAK3 pKi” value stood at 10.2. The Kp at 5 h in data set [5] is 216. In addition, the results for the concentration at 5 h in data set [5] (setting [9]) and in data set [5] (setting [10]) were 5130 ± 2200 ng/g and 24 ± 6 ng/mL, respectively. Also, the “JAK2 pKi” value in data set [6] turned out to be 10.6.
Take `CCc1cc(O)ccc1-c1ccc2c(-c3nc4c([nH]3)CN(C(C)C)[C@H](C(=O)N3CC[C@H](N(C)C)C3)C4)n[nH]c2c1` [Example 6, ((S)-3-(dimethylamino)pyrrolidin-1-yl)((S)-2-(6-(2-ethyl-4-hydroxyphenyl)-1H-indazol-3-yl)-5-isopropyl-4,5,6,7-tetrahydro-3H-imidazo[4,5-c]pyridin-6-yl)methan One]: the IC50 in data set [1] (TALL-1, read-out: Tall-1 pIC50 (converted)) was 2 nM; in data set [7], 158 nM.

The values above are taken from patent US10844057B2, “Process for preparing JAK inhibitors and intermediates thereof” (priority 2018, dated 2020).
